Literature values in patent publication US6774247B2, “Aqueous solution of ascorbic acid and method for producing same” (AquaNova German Solubilisate Technology (AGT) GmbH, priority 2001, dated 2004).

Conditions: aqueous ascorbic acid solution, after 30 days

O=C1O[C@H]([C@@H](O)CO)C(O)=C1O [ascorbic acid]
added ascorbic acid still present: about 70%
